Results from PMC6421704 (Journal of Experimental & Clinical Cancer Research : CR, 2019).
Entries after “also recorded” stand apart in the source; their conditions may differ. Read-outs that look alike come from different tables or passages of the source.

Tests used:
[1] = tested on: HepG2 cell line tumor xenografts; experiment: HepG2 xenograft tumor model in nude mice; format: in vivo
Protocol: First, 2 × 10^6 HepG2 cells, 4 × 10^6 MHCC 97H cells, 4 × 10^6MHCC 97 L cells, 2 × 10^6 A549 cells, or 5 × 10^6 SMMC-7721 cells in a volume of 200 μl PBS were inoculated subcutaneously in the right flank of each mouse. Tumor growth was measured using vernier calipers, and tumor volume (mm^3) was calculated as (L × W × H)/2. When the mean tumor volume reached 200 mm^3, the mice were randomized into four groups and treatment was initiated. […] Tumor volume were recorded every 3 days until the study was terminated. The mice were sacrificed after 21 days of treatment.
The inhibition rate was calculated.
The tumor weights were measured, and the inhibition rate was calculated. Data are shown as the mean ± S.D. and are representative of three independent experiments. **p < 0.01, ***p < 0.001

HepG2 cells [2] = experiment: HepG2 cell growth with Crizotinib and GNF-5837; format: cell-based; conditions: Homo sapiens, read-out: growth inhibition rate
Protocol: The inhibition rate was calculated (right panel).

TrkB signaling = experiment: BDNF-induced TrkB signaling in HepG2 cells (Western blot); format: cell-based, human
Protocol: (§3) Data are shown as the mean ± S.D. and are representative of three independent experiments. ** p < 0.01, *** p < 0.001.
(b) HepG2 cells were treated with BDNF (10 ng/ml) alone or BDNF (10 ng/ml) and HGF (10 ng/ml) for the indicated time and the activation of TrkB signaling pathway was examined. […] The activation of the TrkB and c-Met signaling pathways were examined. […] The activation of the TrkB and c-Met signaling pathways were examined. […] Data are shown as the mean ± S.D. and are representative of three independent experiments. **p < 0.01, ***p < 0.001
(§4) For western blots, cells were lysed with M-PER? Mammalian Protein Extraction Reagent (Pierce, Rockford, IL, USA). Then, western blot analysis was performed according to standard procedures. Chemiluminescent detection was conducted using supersignal substrate (Pierce) according to the manufacturer’s specifications.

c-Met signaling pathway = experiment: HGF-induced c-Met signaling pathway activation in HepG2 cells (Western blot)
Protocol: (a) HepG2 cells were treated with HGF (10 ng/ml) alone or HGF (10 ng/ml) and BDNF (10 ng/ml) for the indicated time and the activation of c-Met signaling pathway was examined.
as §4

PDGFRα = PDGFRα (Homo sapiens, UniProt P16234); experiment: In vitro kinase activity assay (HDB Kinase Selectivity Profiling); format: biochemical; conditions: Kinase Glo Plus assay format
FGFR1 = FGFR1 (Homo sapiens, UniProt P11362); experiment: as above; format: biochemical; conditions: Kinase Glo Plus assay format
AXL = AXL (Homo sapiens, UniProt P30530); experiment: as above; format: biochemical; conditions: Kinase Glo Plus assay format
FLT1 = FLT1 (Homo sapiens, UniProt P17948); experiment: as above; format: biochemical; conditions: Kinase Glo Plus assay format
EPHA1 = EPHA1 (Homo sapiens, UniProt P21709); experiment: as above; format: biochemical; conditions: Kinase Glo Plus assay format
IGF1R = IGF1R (Homo sapiens, UniProt P08069); experiment: as above; format: biochemical; conditions: Kinase Glo Plus assay format
EGFR = EGFR (Homo sapiens, UniProt P00533); experiment: as above; format: biochemical; conditions: Kinase Glo Plus assay format
InsR = InsR (Homo sapiens, UniProt P06213); experiment: as above; format: biochemical; conditions: Kinase Glo Plus assay format
C-KIT = C-KIT (Homo sapiens, UniProt P10721); experiment: In vitro kinase activity assay (Caliper assay format); format: biochemical
C-KIT(v654A) = C-KIT(v654A) (Homo sapiens, UniProt P10721, V654A); experiment: as above; format: biochemical
Ephb1 = Ephb1 (Homo sapiens, UniProt P54762); experiment: as above; format: biochemical
RET = RET (Homo sapiens, UniProt P07949); experiment: In vitro kinase activity assay (HDB Kinase Selectivity Profiling); format: biochemical; conditions: Kinase Glo Plus assay format
EGFR(T790,L858R) = EGFR(T790,L858R) (Homo sapiens, UniProt P00533, L858R/T790M); experiment: as above; format: biochemical; conditions: Kinase Glo Plus assay format
MHCC97H = experiment: cells; conditions: Homo sapiens, 72 h, read-out: IC50 (μM) ± SD
Protocol: (§1) All experiments were conducted three times.

MHCC97L = experiment: cells; conditions: Homo sapiens, 72 h, read-out: IC50 (μM) ± SD
Protocol: as §1

A549 = experiment: Inhibition of cell proliferation (MTS assay); format: cell-based; conditions: Homo sapiens, A549, c-Met^hiTrkB^hi, 72 h
Protocol: as §1

BEL-7402 = experiment: Inhibition of cell proliferation (MTS assay); format: cell-based; conditions: Homo sapiens, BEL-7402, c-Met^loTrkB^lo, 72 h
Protocol: as §1

HCC-LM3 = experiment: Inhibition of cell proliferation (MTS assay); format: cell-based; conditions: Homo sapiens, HCCLM3, HCC-LM3, c-Met^hiTrkB^hi, 72 h
Protocol: as §1

L02 = experiment: Inhibition of cell proliferation (MTS assay); format: cell-based; conditions: Homo sapiens, L02, c-Met^hiTrkB^lo (non-cancerous cells), 72 h
Protocol: as §1

MRC-5 = experiment: Inhibition of cell proliferation (MTS assay); format: cell-based; conditions: Homo sapiens, MRC5, MRC-5, c-Met^loTrkB^lo (non-cancerous cells), 72 h
Protocol: as §1

NCI-H460 = experiment: Inhibition of cell proliferation (MTS assay); format: cell-based; conditions: Homo sapiens, NCI-H460, c-Met^loTrkB^lo, 72 h
Protocol: as §1

SK-N-SH = experiment: Inhibition of cell proliferation (MTS assay); format: cell-based; conditions: Homo sapiens, c-Met^loTrkB^hi, 72 h
Protocol: as §1

SMMC-7721 = experiment: Inhibition of cell proliferation (MTS assay); format: cell-based; conditions: Homo sapiens, SMMC-7721, c-Met^loTrkB^hi, 72 h
Protocol: as §1

Half-life in plasma = format: in vitro ADME; conditions: data not shown
[3] = Body weight in liver orthotopic mouse model; format: in vivo, mice
[4] = Body weight in HepG2 xenograft nude mice model; format: in vivo; conditions: Indo5 vs control groups
MDCK cells [5] = experiment: MDCK cell proliferation (MTS assay); format: cell-based, Canine; conditions: scattering conditions
Protocol: as §1
Figure S1. […] Cell proliferation was anaylzed with MTS assay.

HepG2 cells [6] = experiment: HepG2 cell proliferation under HGF migration conditions (MTS assay); format: cell-based, human
Protocol: as §1
Figure S2. […] Cell proliferation was anaylzed with MTS assay.

[7] = tested on: HGF-induced vasculature formation; experiment: Matrigel plug assay, HGF-induced angiogenesis in vivo; parameters: species or system BALB/c mice; conditions: Matrigel plug with HGF (50 ng/ml) and Indo5 (10 μM, 20 μM), 7 days
Protocol: After 7 days, mice were sacrificed and the Matrigel plugs were fixed in 10% buffered formaldehyde, which was embedded in paraffin, and sectioned. The sections were stained with hematoxylin and eosin(H&E). H&E staining was performed to identify the formation and infiltration of new, functional microvessles.

[8] = tested on: c-Met and TrkB coexpressing cell lines (c-Met^hiTrkB^hi); experiment: Cell growth of c-Met and TrkB coexpressing cell lines; format: cell-based; conditions: Homo sapiens, read-out: IC50 value, range over cell lines
[9] = tested on: c-Met^loTrkB^hi and c-Met^loTrkB^lo cells; experiment: Cell growth of cells expressing TrkB alone or both low; format: cell-based; conditions: Homo sapiens, read-out: IC50 value, range over cell lines
[10] = Cytotoxicity in non-cancerous cells; format: cell-based; conditions: human
HCC metastasis in lung = experiment: Lung metastasis in mice bearing MHCC97H orthotopic tumors (H&E); format: in vivo; conditions: Indo5 treatment
orthotopic tumors = experiment: Histological examination of liver from mice bearing orthotopic tumors (H&E); format: in vivo; conditions: 48 mg/kg Indo5
Text: Figure S8. H&E staining of livers from mice bearing orthotopic tumors treated with the vehicle or Indo5.

[11] = tested on: HepG2 cell line tumor xenografts; experiment: TUNEL staining of HepG2 tumor xenografts; format: in vivo, nude mice; conditions: HepG2 xenograft, Indo5-treated
SMMC-7721 xenograft = SMMC-7721 xenograft mice; format: in vivo
Protocol: (§2) Tumor growth was measured using vernier calipers, and tumor volume (mm^3) was calculated as (L × W × H)/2. When the mean tumor volume reached 200 mm^3, the mice were randomized into four groups and treatment was initiated. Indo5 in DMSO was injected intraperitoneally into the mice once daily at the indicated doses. Tumor volume were recorded every 3 days until the study was terminated. The mice were sacrificed after 21 days of treatment. Solid tumors were excised and weighed, and the inhibition rate was calculated as […].

SK-N-SH xenograft = SK-N-SH xenograft mice; format: in vivo
Protocol: as §2

Ba/F3-Tpr-Met cells [12] = experiment: cells; conditions: Mus musculus, read-out: IC50 of IL-3-independent growth
Ba/F3-Tpr-Met cells [13] = conditions: 0.5 μM Indo5
HepG2 cells [14] = experiment: BDNF-induced HepG2 cell migration; conditions: HepG2, BDNF 50 ng/ml, 24 h
Protocol: (§5) For the migration assay, 2×10^5 cells were seeded on 8µm polycarbonate membrane (Transwell; Costar). […] After 24h migration cells were counted.

MDCK cells [15] = experiment: HGF-stimulated MDCK cell scattering; conditions: Indo5 pretreated 2 h, HGF 20 ng/ml 12 h, dose-dependent
Protocol: Cells were plated into 96-well plates (1.5 × 10^3 cells/well) and grown until small colonies appeared. […] After 24h incubation, cells were fixed with 90% methanol for 30min at room temperature and stained by 1% crystal violet. Scattered clones were photographed.

wild-type Ba/F3 cells = experiment: Proliferation of wild-type Ba/F3 cells
HepG2 cells [16] = experiment: HGF-induced HepG2 cell migration (Transwell); conditions: HepG2, HGF 20 ng/ml, 24 h, dose-dependent
Protocol: as §5

Ba/F3-TrkB cells = experiment: BDNF-induced growth of TrkB-transfected Ba/F3 cells; conditions: BDNF 50 ng/ml 48 h, dose-dependent
Protocol: Cell proliferation was measured and the proliferation index was calculated. […] Data are shown as the mean ± S.D. and are representative of three independent experiments. ** p < 0.01, *** p < 0.001.

mouse hepatocytes = experiment: HGF-induced proliferation of mouse hepatocytes (MTS assay)
TrkA signaling = experiment: NGF-induced TrkA signaling in SK-N-SH cells (Western blot); conditions: 1 μM Indo5, pretreated 2 h, NGF 500 ng/ml 5 min
Protocol: as §3, §4

[17] = tested on: orthotopic HepG2 cell xenografts; experiment: Orthotopic HepG2 cell xenografts (liver orthotopic mouse model)
[18] = tested on: MHCC97H orthotopic tumors
Text: For the orthotopic xenograft mouse model, MHCC97H cells were inoculated subcutaneously in the right flank of each SCID mouse. When the tumor volumes reached approximately 1 cm^3, the mice were sacrificed, and the tumors were isolated and cut into 1 mm^3 pieces. The mice were anesthetized by an intraperitoneal injection of 1% sodium pentobarbital solution. A 1-cm longitudinal skin incision was made on the right upper axillary region of the abdomen of the mouse, the peritoneum was opened and the liver was exposed. The liver was punctured by a needle, and a 1 mm^3 tumor piece was implanted. The liver was put back into the abdominal cavity gently, and the surgical opening was closed using a 5–0 surgical suture.
The tumor weights were measured (b). […] Tumor-bearing mice were sacrificed when they became moribund.

[19] = tested on: EGF receptor-mediated signaling pathway; experiment: EGF receptor-mediated signaling pathway in A549 cells (Western blot); conditions: A549, Indo5 pretreated 2 h, 100 ng/ml EGF 5 min
[20] = tested on: VEGF receptor-mediated signaling pathway; experiment: VEGF receptor-mediated signaling pathway in A549 cells (Western blot); conditions: A549, Indo5 pretreated 2 h, 100 ng/ml VEGF 5 min
[21] = Crizotinib (16 mg/kg) or GNF-5837 (16 mg/kg) alone or combined, intraperitoneally, 3 weeks

AXL, sequence (P30530 26-894): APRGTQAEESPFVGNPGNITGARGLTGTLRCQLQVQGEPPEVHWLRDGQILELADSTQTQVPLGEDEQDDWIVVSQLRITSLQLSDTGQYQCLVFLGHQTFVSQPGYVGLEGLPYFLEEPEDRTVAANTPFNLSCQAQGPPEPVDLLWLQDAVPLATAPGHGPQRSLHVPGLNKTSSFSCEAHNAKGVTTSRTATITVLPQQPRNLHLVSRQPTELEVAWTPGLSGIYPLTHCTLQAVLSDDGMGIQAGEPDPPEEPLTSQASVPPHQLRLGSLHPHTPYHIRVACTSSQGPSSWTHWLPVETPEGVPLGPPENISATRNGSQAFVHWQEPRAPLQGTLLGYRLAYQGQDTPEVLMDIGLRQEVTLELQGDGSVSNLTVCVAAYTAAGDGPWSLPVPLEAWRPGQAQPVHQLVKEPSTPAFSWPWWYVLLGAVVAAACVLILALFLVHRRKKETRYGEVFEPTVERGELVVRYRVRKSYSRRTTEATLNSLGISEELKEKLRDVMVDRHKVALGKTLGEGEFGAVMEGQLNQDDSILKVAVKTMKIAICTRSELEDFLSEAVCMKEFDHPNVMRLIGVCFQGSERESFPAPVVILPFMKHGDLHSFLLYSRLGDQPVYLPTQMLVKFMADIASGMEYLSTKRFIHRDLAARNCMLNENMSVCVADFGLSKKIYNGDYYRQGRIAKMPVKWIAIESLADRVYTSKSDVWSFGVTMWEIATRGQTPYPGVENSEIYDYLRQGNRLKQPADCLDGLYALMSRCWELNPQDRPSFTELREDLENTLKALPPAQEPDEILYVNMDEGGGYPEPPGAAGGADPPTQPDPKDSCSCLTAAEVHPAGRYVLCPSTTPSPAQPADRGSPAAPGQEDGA
EPHA1, sequence (P21709 26-976): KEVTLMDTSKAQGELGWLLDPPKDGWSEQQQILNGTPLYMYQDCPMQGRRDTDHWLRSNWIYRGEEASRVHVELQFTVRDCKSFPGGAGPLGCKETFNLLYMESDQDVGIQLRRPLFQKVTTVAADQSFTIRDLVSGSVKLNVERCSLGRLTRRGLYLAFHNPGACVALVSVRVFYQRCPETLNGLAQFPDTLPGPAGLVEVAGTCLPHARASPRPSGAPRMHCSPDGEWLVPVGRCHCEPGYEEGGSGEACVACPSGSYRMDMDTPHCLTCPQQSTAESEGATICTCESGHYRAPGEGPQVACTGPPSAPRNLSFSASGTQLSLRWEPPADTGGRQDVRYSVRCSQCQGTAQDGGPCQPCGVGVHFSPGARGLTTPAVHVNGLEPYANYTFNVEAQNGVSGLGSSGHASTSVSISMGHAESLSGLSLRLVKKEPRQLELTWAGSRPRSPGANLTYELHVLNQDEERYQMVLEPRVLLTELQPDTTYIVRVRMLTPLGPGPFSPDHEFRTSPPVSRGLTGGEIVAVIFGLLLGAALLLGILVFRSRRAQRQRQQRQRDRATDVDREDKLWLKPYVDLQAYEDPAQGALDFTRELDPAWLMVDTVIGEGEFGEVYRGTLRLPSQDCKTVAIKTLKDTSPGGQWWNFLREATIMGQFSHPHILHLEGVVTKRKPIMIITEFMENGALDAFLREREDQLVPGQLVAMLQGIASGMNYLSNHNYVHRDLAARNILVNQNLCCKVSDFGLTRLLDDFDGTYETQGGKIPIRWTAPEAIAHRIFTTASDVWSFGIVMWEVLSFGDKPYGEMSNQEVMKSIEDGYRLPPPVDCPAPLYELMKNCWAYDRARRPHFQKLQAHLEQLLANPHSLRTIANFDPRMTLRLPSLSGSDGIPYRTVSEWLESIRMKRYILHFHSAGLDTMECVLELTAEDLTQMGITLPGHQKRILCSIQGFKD
PDGFRα, sequence (P16234 24-1089): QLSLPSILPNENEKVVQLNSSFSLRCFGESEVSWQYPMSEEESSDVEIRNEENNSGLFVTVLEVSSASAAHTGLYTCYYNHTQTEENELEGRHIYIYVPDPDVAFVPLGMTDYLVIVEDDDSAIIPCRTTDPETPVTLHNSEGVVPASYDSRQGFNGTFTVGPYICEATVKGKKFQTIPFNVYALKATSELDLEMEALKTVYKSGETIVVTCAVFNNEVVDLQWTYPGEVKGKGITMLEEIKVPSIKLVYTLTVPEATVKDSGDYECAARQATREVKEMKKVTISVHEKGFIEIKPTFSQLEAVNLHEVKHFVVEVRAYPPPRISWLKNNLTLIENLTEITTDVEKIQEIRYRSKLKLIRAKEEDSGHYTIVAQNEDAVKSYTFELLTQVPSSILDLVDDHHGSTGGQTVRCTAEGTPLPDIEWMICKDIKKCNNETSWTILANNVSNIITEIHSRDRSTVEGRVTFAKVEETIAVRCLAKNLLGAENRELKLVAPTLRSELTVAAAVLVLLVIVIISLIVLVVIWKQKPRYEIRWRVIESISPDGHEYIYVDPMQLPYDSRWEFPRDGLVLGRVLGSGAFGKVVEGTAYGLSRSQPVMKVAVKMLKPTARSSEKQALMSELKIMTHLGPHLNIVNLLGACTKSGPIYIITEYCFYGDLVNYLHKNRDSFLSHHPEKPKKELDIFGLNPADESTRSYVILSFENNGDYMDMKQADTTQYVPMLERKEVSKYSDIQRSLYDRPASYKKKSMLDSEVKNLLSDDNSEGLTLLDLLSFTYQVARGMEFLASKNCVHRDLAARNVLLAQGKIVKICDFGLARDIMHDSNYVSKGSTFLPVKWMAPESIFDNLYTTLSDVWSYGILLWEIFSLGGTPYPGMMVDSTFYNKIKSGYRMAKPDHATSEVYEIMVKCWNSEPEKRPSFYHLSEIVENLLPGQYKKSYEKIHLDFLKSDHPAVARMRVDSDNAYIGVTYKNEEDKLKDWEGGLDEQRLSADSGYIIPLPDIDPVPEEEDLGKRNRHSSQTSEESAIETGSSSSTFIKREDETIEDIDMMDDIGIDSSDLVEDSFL
EGFR, sequence (P00533 25-1210): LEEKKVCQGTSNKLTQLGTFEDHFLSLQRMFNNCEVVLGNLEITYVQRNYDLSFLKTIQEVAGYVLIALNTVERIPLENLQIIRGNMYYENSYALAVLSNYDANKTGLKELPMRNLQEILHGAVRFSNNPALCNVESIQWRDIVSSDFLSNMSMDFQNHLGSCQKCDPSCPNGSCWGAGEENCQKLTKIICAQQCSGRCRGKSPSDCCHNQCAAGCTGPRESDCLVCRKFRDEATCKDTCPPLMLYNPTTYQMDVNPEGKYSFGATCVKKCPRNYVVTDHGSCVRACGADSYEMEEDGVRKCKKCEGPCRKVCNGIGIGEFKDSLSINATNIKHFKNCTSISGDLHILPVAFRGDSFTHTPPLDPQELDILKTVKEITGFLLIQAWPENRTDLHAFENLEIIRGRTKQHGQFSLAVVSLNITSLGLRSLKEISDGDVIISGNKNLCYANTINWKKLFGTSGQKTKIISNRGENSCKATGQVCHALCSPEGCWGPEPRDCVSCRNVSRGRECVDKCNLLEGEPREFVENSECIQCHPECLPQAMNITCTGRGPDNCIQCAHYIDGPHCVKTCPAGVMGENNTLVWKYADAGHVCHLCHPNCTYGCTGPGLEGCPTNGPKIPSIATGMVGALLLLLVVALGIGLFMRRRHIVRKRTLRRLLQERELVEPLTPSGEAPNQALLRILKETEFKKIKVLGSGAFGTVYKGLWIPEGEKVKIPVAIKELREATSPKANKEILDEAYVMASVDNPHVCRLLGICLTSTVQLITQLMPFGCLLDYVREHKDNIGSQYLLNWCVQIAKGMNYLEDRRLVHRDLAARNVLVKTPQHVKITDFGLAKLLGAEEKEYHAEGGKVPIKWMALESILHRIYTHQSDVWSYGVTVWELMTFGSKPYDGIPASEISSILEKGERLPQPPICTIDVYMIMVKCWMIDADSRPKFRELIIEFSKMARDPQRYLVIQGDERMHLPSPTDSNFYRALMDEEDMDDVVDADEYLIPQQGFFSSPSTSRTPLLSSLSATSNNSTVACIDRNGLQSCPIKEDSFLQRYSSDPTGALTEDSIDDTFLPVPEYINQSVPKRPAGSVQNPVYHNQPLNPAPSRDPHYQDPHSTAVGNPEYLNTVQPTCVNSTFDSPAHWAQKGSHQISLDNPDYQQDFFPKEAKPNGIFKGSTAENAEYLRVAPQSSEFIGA
C-KIT(v654A), sequence (P10721 26-976 V654A): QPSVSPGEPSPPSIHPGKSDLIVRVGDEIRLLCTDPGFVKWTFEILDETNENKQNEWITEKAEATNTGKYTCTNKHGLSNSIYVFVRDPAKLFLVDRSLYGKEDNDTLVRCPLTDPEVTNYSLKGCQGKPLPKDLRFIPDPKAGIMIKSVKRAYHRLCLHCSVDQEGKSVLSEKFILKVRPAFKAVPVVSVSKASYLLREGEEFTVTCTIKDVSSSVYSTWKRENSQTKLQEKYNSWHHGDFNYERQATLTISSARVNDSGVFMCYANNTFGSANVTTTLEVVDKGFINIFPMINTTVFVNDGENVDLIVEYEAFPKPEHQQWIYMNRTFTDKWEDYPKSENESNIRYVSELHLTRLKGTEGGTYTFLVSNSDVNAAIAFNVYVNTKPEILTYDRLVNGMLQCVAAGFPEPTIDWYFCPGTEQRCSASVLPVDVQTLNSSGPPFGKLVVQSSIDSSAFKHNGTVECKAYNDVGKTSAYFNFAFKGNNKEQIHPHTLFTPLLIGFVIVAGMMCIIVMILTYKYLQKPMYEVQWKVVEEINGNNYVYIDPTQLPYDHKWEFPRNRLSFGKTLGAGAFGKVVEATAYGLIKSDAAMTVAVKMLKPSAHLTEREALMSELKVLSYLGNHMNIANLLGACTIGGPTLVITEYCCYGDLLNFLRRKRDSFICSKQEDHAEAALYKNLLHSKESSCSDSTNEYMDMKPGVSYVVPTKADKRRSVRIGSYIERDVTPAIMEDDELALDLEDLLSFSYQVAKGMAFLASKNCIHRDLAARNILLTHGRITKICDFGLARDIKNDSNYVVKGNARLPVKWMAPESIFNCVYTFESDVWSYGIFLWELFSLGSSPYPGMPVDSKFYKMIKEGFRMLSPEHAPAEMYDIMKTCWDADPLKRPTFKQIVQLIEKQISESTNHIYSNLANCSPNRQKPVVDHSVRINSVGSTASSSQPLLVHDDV
C-KIT, sequence (P10721 26-976): as the sequence (P10721 26-976 V654A) above, with A629V counted along it

For C[C@@H](Oc1cc(-c2cnn(C3CCNCC3)c2)cnc1N)c1c(Cl)ccc(F)c1Cl [Crizotinib], the “inhibition rate (tumor weight)” value [1, 21] was 28%, the inhibition at 0.1 µM (HepG2 cells [2]; HepG2, 100 nM Crizotinib, 48 h) was 30% and the “BDNF-induced TrkB signaling pathway activation” value (TrkB signaling; HepG2, Crizotinib (0.5 μM) pretreated 2 h, BDNF 50 ng/ml) was “significant attenuation”.

For Cc1ccc(NC(=O)Nc2cc(C(F)(F)F)ccc2F)cc1Nc1ccc2c(c1)NC(=O)/C2=C\c1ccc[nH]1 [GNF-5837], the “inhibition rate (tumor weight)” value [1, 21] was 21%, the inhibition at 2 µM (HepG2 cells [2]; HepG2, 2 μM GNF-5837, 48 h) was 14% and the “HGF-induced c-Met signaling pathway activation” value (c-Met signaling pathway; HepG2, GNF-5837 (4 μM) pretreated 2 h, HGF 20 ng/ml) was “suppressed”.

For Cc1ccccc1NS(=O)(=O)c1ccc2c(c1)/C(=C/c1nc3ccccc3[nH]1)C(=O)N2 [Indo5, 3-(1H-benzimidazol-2-methylene)-5-(2-methylphenylaminosulfo)-2-indolone], the IC50 (PDGFRα) was > 10 µM, the IC50 (FGFR1) was > 10 µM and the IC50 (AXL) was > 10 µM. For the same compound, the IC50 (FLT1) was > 10 µM, the IC50 (EPHA1) was > 10 µM and the IC50 (IGF1R) was > 10 µM. For the same compound, the IC50 (EGFR) was > 10 µM, the IC50 (InsR) was > 10 µM and the IC50 (C-KIT) was > 10 µM. For the same compound, the IC50 (C-KIT(v654A)) was > 10 µM, the IC50 (Ephb1) was > 10 µM and the IC50 (RET) was > 10 µM. The IC50 (EGFR(T790,L858R)) was > 10 µM, the IC50 (MHCC97H) was 1.11 ± 0.018 µM and the IC50 (MHCC97L) was 1.28 ± 0.016 µM. It also gave an IC50 (A549) of 1.62 ± 0.008 µM, an IC50 (BEL-7402) of 5.605 ± 0.017 µM and an IC50 (HCC-LM3) of 1.873 ± 0.012 µM. The IC50 (L02) was 32.52 ± 0.075 µM, the IC50 (MRC-5) was > 100 µM and the IC50 (NCI-H460) was 9.185 ± 0.035 µM. For the same compound, the IC50 (SK-N-SH) was 2.982 ± 0.019 µM, the IC50 (SMMC-7721) was 3.598 ± 0.022 µM and the half-life (Half-life in plasma) was 5 min. The “inhibition rate (tumor weight)” value ([1]; Indo5 16 mg/kg, intraperitoneally once daily, 21 days) was 65.2%, the body weight change ([3]; liver orthotopic mouse model, Indo5 up to highest dose (48 mg/kg), 48 mg/kg) was “no obvious weight changes; also recorded: not associated with loss of body weight” and the mouse body weights [4] was “almost unchanged”. The “effect on cell proliferation” value (MDCK cells [5]) was “No obvious effect”, the “effect on cell proliferation” value (HepG2 cells [6]) was “weak inhibitory effect” and the “HGF-induced vasculature formation in vivo” value [7] was “dramatically blocked”. For the same compound, the “BDNF-induced TrkB signaling” value (TrkB signaling; HepG2, Indo5 pretreated 2 h, BDNF 50 ng/ml 5 min, dose-dependent) was “decreased”, the IC50 [8] was 1.11 to 1.87 µM and the IC50 [9] was 2.98 to 9.19 µM. The IC50 [10] was > 30 µM, the “HCC metastasis in lung” value (HCC metastasis in lung) was “dramatic decrease” and the “tumor cells in liver tissue (histological examination)” value (orthotopic tumors) was “no obvious tumor cells”. The “apoptosis in tumor tissues (TUNEL staining)” value [11] was “increased apoptosis”, the xenograft tumor growth (SMMC-7721 xenograft) was “dose-dependent inhibitory effect” and the xenograft tumor growth (SK-N-SH xenograft) was “dose-dependent inhibitory effect”. The IC50 (Ba/F3-Tpr-Met cells [12]) was 0.618 µM, the cell apoptosis (Ba/F3-Tpr-Met cells [13]) was “markedly induced cell apoptosis” and the BDNF-induced cell migration (HepG2 cells [14]) was “suppressed”. The HGF-stimulated cell scattering (MDCK cells [15]) was “blocked”, the “effect on cell proliferation” value (wild-type Ba/F3 cells) was “no obvious effect” and the HGF-induced cell migration (HepG2 cells [16]) was “significantly suppressed”. For the same compound, the BDNF-induced growth (Ba/F3-TrkB cells) was “inhibited”, the cytotoxicity (mouse hepatocytes; 0.5 μM Indo5, 72 h, data not shown) was “no cytotoxicity was observed” and the HGF-induced cell proliferation (mouse hepatocytes; mouse hepatocytes, HGF 20 ng/ml 48 h, MTS) was “dose-dependently inhibited”. The “NGF-induced TrkA signaling” value (TrkA signaling) was “almost completely inhibited”, the “rate of tumor growth inhibition” value ([17]; orthotopic HepG2, 8 mg/kg intraperitoneally once daily for 3 weeks) was “approximately 49%” and the “rate of tumor growth inhibition” value ([17]; orthotopic HepG2, 16 mg/kg intraperitoneally once daily for 3 weeks) was 61.2%. For the same compound, the “overall health of the animals” value ([17]; orthotopic HepG2 model, Indo5 vs control, data not shown) was “not adversely affected”, the survival rate ([18]; 24 mg/kg Indo5 once daily by oral gavage) was 40% and the overall survival rate ([18]; 48 mg/kg Indo5 once daily by oral gavage) was 77.7%. For the same compound, the “activation of EGF receptor-mediated signaling pathway” value [19] was “no effect”, the “activation of VEGF receptor-mediated signaling pathway” value [20] was “no effect” and the “HGF-induced c-Met signaling pathway activation” value (c-Met signaling pathway; HepG2, 0.5 μM Indo5, pretreated 2 h, HGF 20 ng/ml 5 min) was “dramatically suppressed”.

For CNC(=O)c1cc(Oc2ccc(NC(=O)Nc3ccc(Cl)c(C(F)(F)F)c3)cc2)ccn1 [Sorafenib, reference compound], the body weight loss ([3]; sorafenib treatment, mice) was “up to 10%” and the survival rate ([18]; 50 mg/kg Sorafenib once daily by oral gavage) was 44%.
